The nature of one data set: Pharmacokinetic profile in rats (blood 15N-nitrite levels). It is filed as in vivo, rat. The following applies: cannulated SD rats, blood, oral 30 mg/kg. As to the method: The absorption and in vivo NO-donating property of the compounds of the invention were assessed by the evaluation of blood ^15N-nitrite levels following oral administration.
Tested Compounds: • 5-(2,4,5-trimethyl-3,6-dioxocyclohexa-1,4-dienylpentyl nitrate-nitrogen-15 which corresponds to compound (1) containing nitrogen-15 (^15N-Compound (1)); • 5-(4,5-dimethoxy-2-methyl-3,6-dioxocyclohexa-1,4-dienyl)pentyl nitrate-nitrogen-15 which corresponds to compound (2) containing nitrogen-15 (^15N-Compound (2)); • 4-(2,4,5-trimethyl-3,6-dioxocyclohexa-1,4-dienyl)butyl nitrate-nitrogen-15 which corresponds to compound (3) containing nitrogen-15 (^15N-Compound (3)); • 4-(4,5-dimethoxy-2-methyl-3,6-dioxocyclohexa-1,4-dienyl)butyl nitrate-nitrogen-15 which corresponds to compound (4) containing nitrogen-15 (^15N-Compound (4)); • 10-(2,4,5-trimethyl-3,6-dioxocyclohexa-1,4-dienyl)decyl nitrate-nitrogen-15 which corresponds to compound (5) containing nitrogen-15 (^15N-Compound (5)); • 10-(4,5-dimethoxy-2-methyl-3,6-dioxocyclohexa-1,4-dienyl)decyl nitrate-nitrogen-15 which corresponds to compound (6) containing nitrogen-15 (^15N-Compound (6)); • 3-(3-(4,5-dimethoxy-2-methyl-3,6-dioxocyclohexa-1,4-dienyl)propoxy)propyl nitrate-nitrogen-15 which corresponds to compound (14) containing nitrogen-15 (^15N-Compound (14)); • 6-(2,4,5-trimethyl-3,6-dioxocyclohexa-1,4-dienyl)hexyl nitrate-nitrogen-15 which corresponds to compound (15) containing nitrogen-15 (^15N-Compound (15)); • 6-(4,5-dimethoxy-2-methyl-3,6-dioxocyclohexa-1,4-dienyl)hexyl nitrate-nitrogen-15 which corresponds to compound (16) containing nitrogen-15 (^15N-Compound (16)); • 11-(4,5-dimethoxy-2-methyl-3,6-dioxocyclohexa-1,4-dienyl)-undecane-1,2-diyl dinitrate-nitrogen-15 which corresponds to compound (17) containing nitrogen-15 (^15N-Compound (17)); • 8-(5-methoxy-2,4-dimethyl-3,6-dioxocyclohexa-1,4-dienyl)octyl nitrate-nitrogen—which corresponds to compound (19) containing nitrogen-15 (^15N-Compound (19)); • 2-(3-(4,5-dimethoxy-2-methyl-3,6-dioxocyclohexa-1,4-dienyl)propoxy)ethyl nitrate-nitrogen-15 which corresponds to compound (20) containing nitrogen-15 (^15N-Compound (20)); • 6-(3-methyl-1,4-dioxo-1,4-dihydronaphthalen-2-yl)hexyl nitrate-nitrogen-15 which corresponds to compound (23) containing nitrogen-15 (^15N-Compound (23)); • 3-(3-(3-methyl-1,4-dioxo-1,4-dihydronaphthalen-2-yl)propoxy)propyl nitrate-nitrogen-15 which corresponds to compound (25) containing nitrogen-15 (^15N-Compound (25)); • 6-(5-methoxy-2,4-dimethyl-3,6-dioxocyclohexa-1,4-dienyl)hexyl nitrate-nitrogen-15 which corresponds to compound (28) containing nitrogen-15 (^15N-Compound (28)); • 6-(4-methoxy-2,5-dimethyl-3,6-dioxocyclohexa-1,4-dienyl)hexyl nitrate-nitrogen-15 which corresponds to compound (29) containing nitrogen-15 (^15N-Compound (29)); • 8-(4-methoxy-2,5-dimethyl-3,6-dioxocyclohexa-1,4-dienyl)octyl nitrate-nitrogen-15 which corresponds to compound (32) containing nitrogen-15 (^15N-Compound (32)); • 8-(2,4,5-trimethyl-3,6-dioxocyclohexa-1,4-dienyl)octyl nitrate-nitrogen-15 which corresponds to compound (34) containing nitrogen-15 (^15N-Compound (34)); • 5-isorbide mononitrate containing nitrogen-15 (5-ISM^15N).
Cannulated SD rats were orally treated with ^15N-Compounds (6) at 30 mg/kg, 5-ISM^15N (30 mg/kg), or ^15N-Compounds (1)-(5), 14)-(17), (19), (20), (23), (25), (28), (29), (32), (34) at 30 mg/kg. At each time point (5, 10, 15, 30, 60, 180, 360 and 1440 min) blood was taken using heparin to avoid blood clotting. Blood samples were immediately protein crushed. Samples were analyzed by LC-MS/MS.
In Table 7 are reported ^15N-nitrite blood levels following oral administration of SD rats with 5-ISM^15N (30 mg/kg) or with ^15N-labeled corresponding compounds of the invention (30 mg/kg).
`COC1=C(OC)C(=O)C(CCCOCCO[15N+](=O)[O-])=C(C)C1=O` [^15N-Compound (20), 2-(3-(4,5-dimethoxy-2-methyl-3,6-dioxocyclohexa-1,4-dienyl)propoxy)ethyl nitrate-nitrogen-15]: the “15N-nitrite AUC0-24” value is 1154 µM·min and the “15N-nitrite Tmax” value is reported as 60 min.

The same data set, now with this note: cannulated SD rats, blood, oral 30 mg/kg; read-out: 15N-nitrite Cmax.
Consider `COC1=C(OC)C(=O)C(CCCOCCO[N+](=O)[O-])=C(C)C1=O` [^15N-Compound (20), 2-(3-(4,5-dimethoxy-2-methyl-3,6-dioxocyclohexa-1,4-dienyl)propoxy)ethyl nitrate-nitrogen-15], for which the Cmax came out at 3580 ± 720 nM.

Staying with this data set, now noted: rat, in vivo, po, 30 mg/kg.
Turning to `CC1=C(C)C(=O)C(CCCCCO[N+](=O)[O-])=C(C)C1=O` [^15N-Compound (1)], the “15N-nitrite AUC0-24” value came to 1248 µM·min, the “15N-nitrite Tmax” value stood at 60 min and the Cmax was 3350 ± 420 nM.

As to `COC1=C(OC)C(=O)C(CCCCCO[15N+](=O)[O-])=C(C)C1=O` [^15N-Compound (2), 5-(4,5-dimethoxy-2-methyl-3,6-dioxocyclohexa-1,4-dienyl)pentyl nitrate-nitrogen-15], the “15N-nitrite AUC0-24” value is 1139 µM·min and the “15N-nitrite Tmax” value stood at 60 min.

Consider `COC1=C(OC)C(=O)C(CCCCCO[N+](=O)[O-])=C(C)C1=O` [^15N-Compound (2), 5-(4,5-dimethoxy-2-methyl-3,6-dioxocyclohexa-1,4-dienyl)pentyl nitrate-nitrogen-15], for which the peak concentration (Cmax) worked out at 1920 ± 250 nM.

On to `CC1=C(C)C(=O)C(CCCCO[15N+](=O)[O-])=C(C)C1=O` [^15N-Compound (3), 4-(2,4,5-trimethyl-3,6-dioxocyclohexa-1,4-dienyl)butyl nitrate-nitrogen-15], for which the “15N-nitrite AUC0-24” value was 1404 µM·min and the “15N-nitrite Tmax” value came out at 60 min.

Consider `CC1=C(C)C(=O)C(CCCCO[N+](=O)[O-])=C(C)C1=O` [^15N-Compound (3), 4-(2,4,5-trimethyl-3,6-dioxocyclohexa-1,4-dienyl)butyl nitrate-nitrogen-15], for which the Cmax was determined as 4820 ± 1100 nM.

As to `COC1=C(OC)C(=O)C(CCCCO[N+](=O)[O-])=C(C)C1=O` [^15N-Compound (4), 4-(4,5-dimethoxy-2-methyl-3,6-dioxocyclohexa-1,4-dienyl)butyl nitrate-nitrogen-15], the “15N-nitrite AUC0-24” value came out at 832 µM·min, the “15N-nitrite Tmax” value came out at 15 min and the highest concentration (Cmax) was determined as 3330 ± 100 nM.

As to `CC1=C(C)C(=O)C(CCCCCCCCCCO[15N+](=O)[O-])=C(C)C1=O` [^15N-Compound (5), 10-(2,4,5-trimethyl-3,6-dioxocyclohexa-1,4-dienyl)decyl nitrate-nitrogen-15], the “15N-nitrite AUC0-24” value worked out at 1496 µM·min and the “15N-nitrite Tmax” value was 180 min.

As for `CC1=C(C)C(=O)C(CCCCCCCCCCO[N+](=O)[O-])=C(C)C1=O` [^15N-Compound (5), 10-(2,4,5-trimethyl-3,6-dioxocyclohexa-1,4-dienyl)decyl nitrate-nitrogen-15], the Cmax was 1890 ± 420 nM.

In the case of `COC1=C(OC)C(=O)C(CCCOCCCO[15N+](=O)[O-])=C(C)C1=O` [^15N-Compound (14), 3-(3-(4,5-dimethoxy-2-methyl-3,6-dioxocyclohexa-1,4-dienyl)propoxy)propyl nitrate-nitrogen-15], the “15N-nitrite AUC0-24” value turned out to be 694 µM·min and the “15N-nitrite Tmax” value was found to be 60 min.

The compound `COC1=C(OC)C(=O)C(CCCOCCCO[N+](=O)[O-])=C(C)C1=O` [^15N-Compound (14), 3-(3-(4,5-dimethoxy-2-methyl-3,6-dioxocyclohexa-1,4-dienyl)propoxy)propyl nitrate-nitrogen-15] showed a Cmax of 1520 ± 110 nM.

In the case of `CC1=C(C)C(=O)C(CCCCCCO[15N+](=O)[O-])=C(C)C1=O` [^15N-Compound (15), 6-(2,4,5-trimethyl-3,6-dioxocyclohexa-1,4-dienyl)hexyl nitrate-nitrogen-15], the “15N-nitrite AUC0-24” value came to 2135 µM·min and the “15N-nitrite Tmax” value is reported as 180 min.

`CC1=C(C)C(=O)C(CCCCCCO[N+](=O)[O-])=C(C)C1=O` [^15N-Compound (15), 6-(2,4,5-trimethyl-3,6-dioxocyclohexa-1,4-dienyl)hexyl nitrate-nitrogen-15] returned a Cmax of 3650 ± 580 nM.

Take `COC1=C(OC)C(=O)C(CCCCCCO[N+](=O)[O-])=C(C)C1=O` [^15N-Compound (16), 6-(4,5-dimethoxy-2-methyl-3,6-dioxocyclohexa-1,4-dienyl)hexyl nitrate-nitrogen-15]: the “15N-nitrite AUC0-24” value turned out to be 1559 µM·min, the “15N-nitrite Tmax” value came to 180 min and the highest level (Cmax) was 2930 ± 490 nM.

Take `COC1=C(OC)C(=O)C(CCCCCCCCCC(CO[N+](=O)[O-])O[N+](=O)[O-])=C(C)C1=O` (centres unmarked) [^15N-Compound (17), 11-(4,5-dimethoxy-2-methyl-3,6-dioxocyclohexa-1,4-dienyl)-undecane-1,2-diyl dinitrate-nitrogen-15]: the “15N-nitrite AUC0-24” value turned out to be 1666 µM·min, the “15N-nitrite Tmax” value was found to be 180 min and the concentration peaked (Cmax) at 2060 ± 120 nM.

As for `CC1=C(CCCCCCO[15N+](=O)[O-])C(=O)c2ccccc2C1=O` [^15N-Compound (23), 6-(3-methyl-1,4-dioxo-1,4-dihydronaphthalen-2-yl)hexyl nitrate-nitrogen-15], the “15N-nitrite AUC0-24” value was 2586 µM·min and the “15N-nitrite Tmax” value stood at 180 min.

In the case of `CC1=C(CCCCCCO[N+](=O)[O-])C(=O)c2ccccc2C1=O` [^15N-Compound (23), 6-(3-methyl-1,4-dioxo-1,4-dihydronaphthalen-2-yl)hexyl nitrate-nitrogen-15], the Cmax turned out to be 4050 ± 530 nM.

As for `CC1=C(CCCOCCCO[N+](=O)[O-])C(=O)c2ccccc2C1=O` [^15N-Compound (25), 3-(3-(3-methyl-1,4-dioxo-1,4-dihydronaphthalen-2-yl)propoxy)propyl nitrate-nitrogen-15], the “15N-nitrite AUC0-24” value stood at 2010 µM·min, the “15N-nitrite Tmax” value is 180 min and the Cmax was 2890 ± 690 nM.

In the case of `COC1=C(C)C(=O)C(C)=C(CCCCCCO[N+](=O)[O-])C1=O` [^15N-Compound (28), 6-(5-methoxy-2,4-dimethyl-3,6-dioxocyclohexa-1,4-dienyl)hexyl nitrate-nitrogen-15], the “15N-nitrite AUC0-24” value came to 1199 µM·min, the “15N-nitrite Tmax” value is listed as 60 min and the Cmax was 3740 ± 420 nM.

For `COC1=C(C)C(=O)C(CCCCCCO[N+](=O)[O-])=C(C)C1=O` [^15N-Compound (29), 6-(4-methoxy-2,5-dimethyl-3,6-dioxocyclohexa-1,4-dienyl)hexyl nitrate-nitrogen-15], the “15N-nitrite AUC0-24” value was determined as 1309 µM·min, the “15N-nitrite Tmax” value worked out at 60 min and the highest level (Cmax) was 2550 ± 220 nM.

With `COC1=C(C)C(=O)C(CCCCCCCCO[N+](=O)[O-])=C(C)C1=O` [^15N-Compound (32), 8-(4-methoxy-2,5-dimethyl-3,6-dioxocyclohexa-1,4-dienyl)octyl nitrate-nitrogen-15], the “15N-nitrite AUC0-24” value turned out to be 1892 µM·min, the “15N-nitrite Tmax” value is recorded as 180 min and the Cmax was 1980 ± 570 nM.

For `CC1=C(C)C(=O)C(CCCCCCCCO[15N+](=O)[O-])=C(C)C1=O` [^15N-Compound (34), 8-(2,4,5-trimethyl-3,6-dioxocyclohexa-1,4-dienyl)octyl nitrate-nitrogen-15], the “15N-nitrite AUC0-24” value was determined as 1477 µM·min and the “15N-nitrite Tmax” value was found to be 180 min.

The term Cmax denotes the maximum level reached in the sampled fluid or tissue.

Source of the values: patent US9079821B2, “Quinone based nitric oxide donating compounds” (NICOX S.A., priority 2011, dated 2015).
